{
  "source": "patent US20200278355A1",
  "about": "“CONJUGATED PROTEINS AND USES THEREOF” (THE SCRIPPS RESEARCH INSTITUTE, priority 2017, published 2020)",
  "target": "T1, SELO (Homo sapiens, UniProt Q9BVL4)",
  "T1 construct": "Isotopically labeled H460 cell lines were generated as described above; endogenous in cells; host or cells: H460 (SILAC-labelled)",
  "T1 sequence (Q9BVL4 116-669)": "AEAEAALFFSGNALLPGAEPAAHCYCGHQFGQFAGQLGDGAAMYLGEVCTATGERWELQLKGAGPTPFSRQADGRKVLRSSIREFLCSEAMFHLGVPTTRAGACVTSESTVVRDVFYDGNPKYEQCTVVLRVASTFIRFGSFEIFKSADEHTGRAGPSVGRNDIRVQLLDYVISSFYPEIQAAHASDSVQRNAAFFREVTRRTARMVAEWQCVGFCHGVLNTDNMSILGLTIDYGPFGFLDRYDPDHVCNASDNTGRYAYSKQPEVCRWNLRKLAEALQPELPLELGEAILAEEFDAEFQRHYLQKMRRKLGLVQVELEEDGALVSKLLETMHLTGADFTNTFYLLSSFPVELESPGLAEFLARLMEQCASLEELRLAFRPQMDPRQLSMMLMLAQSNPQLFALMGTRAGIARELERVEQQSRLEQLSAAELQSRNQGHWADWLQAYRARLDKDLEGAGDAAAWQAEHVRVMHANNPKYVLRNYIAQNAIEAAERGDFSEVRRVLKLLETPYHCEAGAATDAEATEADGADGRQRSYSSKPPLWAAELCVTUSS",
  "test": "ABPP-SILAC BPK-29yne competition in H460 cells: SELO",
  "type": "cell-based",
  "details": "20 μM",
  "protocol": "Isotopically labeled H460 cell lines were generated as described above. Light and heavy cells were treated with compounds (20 μM) or DMSO, respectively, for 3 h, followed by labeling with the BPK-29yne (5 μM) for 30 min. Cells were washed once ice-cold PBS and lysed in 1% Triton 100-X dissolved in PBS with protease inhibitors (Sigma) by sonication. Lysate was adjusted to 1.5 mg ml^−1 in 500 μL. Samples were conjugated by CuAAC to Biotin-PEG4-azide (5 μL of 10 mM stocks in DMSO, final concentration=100 μM). CuAAC “click” mix contained TCEP, TBTA ligand and CuSO4 as detailed for isoTOP-ABPP sample preparation. Samples were further processed as detailed in: isoTOP-ABPP streptavidin enrichment and isoTOP-ABPP trypsin TEV digestion with the following exception: after overnight incubation at 37° C. with trypsin, tryptic digests were separated from the beads with Micro Bio-Spin columns (Bio-Rad) by centrifugation (1,000×g, 1 min). Beads were rinsed once with water (200 μL) and combined with tryptic digests. […]\nThe MS2 spectra data were extracted and searched using RAW Convertor and ProLuCID algorithm as described in isoTOP-ABPP peptide and protein quantification. […] Ratios of heavy/light (DMSO/test compound) peaks were calculated using in-house CIMAGE software. […] The mean R values and standard deviation for multiple biological experiments were calculated from the average ratios from each replicate. […]",
  "data": [
    {"smiles": "O=C(c1ccc(N2CCOCC2)cc1)N1CCCC(N(Cc2ccccc2)C(=O)CCl)CC1", "note": "(stereo not shown) [BPK-29, N-benzyl-2-chloro-N-(1-(4-morpholinobenzoyl)azepan-4-yl)acetamide]", "values": [
      {"measurement": "BPK-29-competed BPK-29yne analysis", "result": "Yes (Competed defined as showing R value ≥ 2.5 at 20 μM of test compound)"}
    ]}
  ]
}
